The values below come from US20040037843A1, “Inducing cellular immune responses to prostate cancer antigens using peptide and nucleic acid compositions” (priority 2003, published 2004).

Like-named read-outs stand apart in the source and are kept apart here.

One assay concerns the target HLA-A*0206 (Homo sapiens, UniProt P04439, D140Y/D185E/D98H/E176V/E277Q/F33Y/G131W/G231S/I119V/I121R/I166T/I218V/L300P/L318F/N151K/N90K/P208A/P217A/Q86G/Q94H/R138H/R169H/T345S). In words: HLA class I binding assay, purified HLA, inhibition of 125I-labelled probe peptide.
The target of the next assay is HLA-A*0203 (Homo sapiens, UniProt P04439, A173T/D140Y/D185E/D98H/E277Q/G131W/G231S/I119V/I121R/I166T/I218V/L180W/L300P/L318F/N151K/N90K/P208A/P217A/Q86G/Q94H/R138H/R169H/T345S). The assay is described as above.
The target of a further assay is HLA-A*6802 (Homo sapiens, UniProt P04439, A269V/D140Y/D185E/E176V/E277Q/E87N/F33Y/G231S/I121R/I166T/I218V/L180W/L300P/L318F/N151K/P208A/P217A/Q86R/R138H/R169H/S129P/T345S/V36M). The description is as above.
In the next assay the target is HLA-A*0201 (Homo sapiens, UniProt P04439, D140Y/D185E/D98H/E176V/E277Q/G131W/G231S/I119V/I121R/I166T/I218V/L300P/L318F/N151K/N90K/P208A/P217A/Q86G/Q94H/R138H/R169H/T345S). The description is as above. To be noted: A*[…], A2 supermotif cross-reactive binding data.
The test system of assay [1] is .221A2.1 peptide-loaded target cells and cells expressing endogenous antigen. Description: Primary in vitro CTL induction with peptide-pulsed DC, CTL lytic activity by 51Cr release. In kind it is cell-based, human. The settings on record: immunogenicity, positive/tested; for A2 native: CTL recognition of native (wild-type) target; for A2 peptide: CTL recognition of the peptide. On the procedure: Testing was performed using the following methodology:
Cells that express an antigen of interest, or transfectants comprising the gene encoding the antigen of interest, can be used as target cells to test the ability of peptide-specific CTLs to recognize endogenous antigen.
The monocytes are purified by plating 10×10^6 PBMC/well in a 6-well plate. After 2 hours at 37° C., the non-adherent cells are removed by gently shaking the plates and aspirating the supernatants. The wells are washed a total of three times with 3 ml RPMI to remove most of the non-adherent and loosely adherent cells. Three ml of complete medium containing 50 ng/ml of GM-CSF and 1,000 U/ml of IL-4 are then added to each well. TNFα is added to the DCs on day 6 at 75 ng/ml and the cells are used for CTL induction cultures on day 7.
Induction of CTL with DC and Peptide: CD8+ T-cells are isolated by positive selection with Dynal imnmunomagnetic beads (Dynabeads® M-450) and the detacha-bead® reagent. Typically about 200-250×10^6 PBMC are processed to obtain 24×10^6 CD8^+T-cells (enough for a 48-well plate culture). Briefly, the PBMCs are thawed in RPMI with 30 μg/ml DNAse, washed once with PBS containing 1% human AB serum and resuspended in PBS/1% AB serum at a concentration of 20×10^6 cells/ml. The magnetic beads are washed 3 times with PBS/AB serum, added to the cells (140 μl beads/20×10^6 cells) and incubated for 1 hour at 4° C. with continuous mixing. The beads and cells are washed 4× with PBS/AB serum to remove the nonadherent cells and resuspended at 100×10^6 cells/ml (based on the original cell number) in PBS/AB serum containing 100 μl/ml detacha-bead® reagent and 30 μg/ml DNAse. The mixture is incubated for 1 hour at room temperature with continuous mixing. The beads are washed again with PBS/AB/DNAse to collect the CD8+ T-cells. The DC are collected and centrifuged at 1300 rpm for 5-7 minutes, washed once with PBS with 1% BSA, counted and pulsed with 40 μg/ml of peptide at a cell concentration of 1-2×10^6/ml in the presence of 3 μg/ml β2-microglobulin for 4 hours at 20° C. The DC are then irradiated (4,200 rads), washed 1 time with medium and counted again.
Setting up induction cultures: 0.25 ml cytokine-generated DC (@1×10^5 cells/ml) are co-cultured with 0.25 ml of CD8+ T-cells (@2×10^6 cell/ml) in each well of a 48-well plate in the presence of 10 ng/ml of IL-7. Recombinant human IL10 is added the next day at a final concentration of 10 ng/ml and rhuman IL2 is added 48 hours later at 10 IU/mL.
Restimulation of the induction cultures with peptide-pulsed adherent cells: Seven and fourteen days after the primary induction the cells are restimulated with peptide-pulsed adherent cells. The PBMCS are thawed and washed twice with RPMI and DNAse. The cells are resuspended at 5×10^6 cells/ml and irradiated at ˜4200 rads. The PBMCs are plated at 2×10^6 in 0.5 ml complete medium per well and incubated for 2 hours at 37° C. The plates are washed twice with RPMI by tapping the plate gently to remove the nonadherent cells and the adherent cells pulsed with 10 μg/ml of peptide in the presence of 3 μg/ml β2 microglobulin in 0.25 ml RPMI/5% AB per well for 2 hours at 37° C. Peptide solution from each well is aspirated and the wells are washed once with RPMI. Most of the media is aspirated from the induction cultures (CD8+ cells) and brought to 0.5 ml with fresh media. The cells are then transferred to the wells containing the peptide-pulsed adherent cells. Twenty four hours later rhuman IL10 is added at a final concentration of 10 ng/ml and rhuman IL2 is added the next day and again 2-3 days later at 50 IU/ml (Tsai et al., Critical Reviews in Immunology 18(1-2):65-75, 1998). Seven days later the cultures are assayed for CTL activity in a ^51Cr release assay. In some experiments the cultures are assayed for peptide-specific recognition in the in situ IFNγ ELISA at the time of the second restimulation followed by assay of endogenous recognition 7 days later. […]

[2] abbreviates: A2 supermotif cross-reactive binding data, read-out: A*6802 nM.
Setting [3] is: A*[…], A2 supermotif cross-reactive binding data.

Take `CSCC[C@H](NC(=O)[C@H](C)NC(=O)[C@H](CO)NC(=O)[C@H](CCSC)NC(=O)[C@H](CC(C)C)NC(=O)[C@@H](N)[C@@H](C)O)C(=O)N[C@H](C(=O)N[C@@H](CC(N)=O)C(=O)N[C@@H](CC(C)C)C(=O)N[C@@H](C)C(=O)O)[C@@H](C)O` [Peptide 20.0312]: the IC50 on HLA-A*0206 came out at 3700 nM; at HLA-A*0203 it was 37 nM; on HLA-A*6802 it was 6670 nM.
For `CC(C)C[C@H](NC(=O)[C@H](CC(C)C)NC(=O)CNC(=O)[C@H](CC(N)=O)NC(=O)[C@H](Cc1ccc(O)cc1)NC(=O)[C@@H](NC(=O)[C@H](CC(=O)O)NC(=O)[C@H](CC(C)C)NC(=O)[C@H](C)N)C(C)C)C(=O)O` [Peptide 1177.02], the IC50 at HLA-A*0203 is 256 nM; on HLA-A*0201, 73 nM; on HLA-A*6802 (setting [2]) it was > 10000 nM.
As for `CSCC[C@H](N)C(=O)N[C@@H](CC(C)C)C(=O)N[C@@H](CC(C)C)C(=O)N[C@@H](CCCNC(=N)N)C(=O)N[C@@H](CC(C)C)C(=O)N[C@@H](CO)C(=O)N[C@@H](CCC(=O)O)C(=O)N1CCC[C@H]1C(=O)N[C@@H](C)C(=O)N[C@@H](CCC(=O)O)C(=O)N[C@H](C(=O)O)C(C)C` [Peptide 1389.12], the IC50 stood at 115 nM on HLA-A*0203 (setting [3]), 294 nM at HLA-A*0201 and 4440 nM at HLA-A*6802 (setting [2]).
On to `CC(C)C[C@H](NC(=O)[C@H](CO)NC(=O)[C@@H](NC(=O)[C@H](CS)NC(=O)[C@H](CCC(N)=O)NC(=O)[C@H](CC(C)C)NC(=O)[C@@H](N)CO)C(C)C)C(=O)N[C@@H](Cc1c[nH]cn1)C(=O)N[C@H](C(=O)O)C(C)C` [Peptide 1418.19], for which the IC50 on HLA-A*0206 (setting [3]) is 4110 nM; at HLA-A*0203 (setting [3]) it was 48 nM; on HLA-A*0201, 56 nM.
Consider `CC[C@H](C)[C@H](N)C(=O)N[C@H](C(=O)N[C@@H](CC(C)C)C(=O)N[C@@H](Cc1c[nH]c2ccccc12)C(=O)N[C@@H](CCC(N)=O)C(=O)N1CCC[C@H]1C(=O)N[C@H](C(=O)N1CCC[C@H]1C(=O)N[C@H](C(=O)O)C(C)C)[C@@H](C)CC)[C@@H](C)O` [Peptide 1418.25], for which, in assay [1], the A2 native is on record as 2/3 and the A2 peptide is given as 3/3.
Regarding `CC[C@H](C)[C@H](N)C(=O)N[C@H](C(=O)N[C@@H](CC(C)C)C(=O)N[C@@H](CO)C(=O)N[C@H](C(=O)NCC(=O)N[C@@H](CS)C(=O)N[C@H](C(=O)NCC(=O)N[C@@H](C)C(=O)N[C@H](C(=O)O)C(C)C)[C@@H](C)O)C(C)C)[C@@H](C)O` [Peptide 1418.59], the values for the IC50 on HLA-A*0206 (setting [3]), at HLA-A*0203 (setting [3]) and at HLA-A*0201 were 206 nM, 40 nM and 294 nM, respectively.
For the compound `CC(C)C[C@H](NC(=O)[C@H](C)N)C(=O)NCC(=O)N[C@H](C(=O)N[C@H](C(=O)N[C@@H](CS)C(=O)N[C@@H](Cc1ccc(O)cc1)C(=O)N[C@@H](C)C(=O)O)[C@@H](C)O)[C@@H](C)O` [Peptide 1419.01], in assay [1], the A2 peptide was 1/2.
In the case of `CC(C)C[C@H](NC(=O)[C@H](CO)NC(=O)[C@H](CCCNC(=N)N)NC(=O)[C@@H]1CCCN1C(=O)[C@H](CCCNC(=N)N)NC(=O)[C@H](CC(C)C)NC(=O)[C@@H](N)Cc1ccccc1)C(=O)N[C@@H](CCC(N)=O)C(=O)N[C@@H](CS)C(=O)N[C@H](C(=O)O)C(C)C` [Peptide 1419.07], in assay [1], the A2 peptide is 1/3.
Take `CC(C)C[C@H](NC(=O)[C@@H](N)C(C)C)C(=O)N[C@H](C(=O)N[C@@H](Cc1c[nH]cn1)C(=O)N1CCC[C@H]1C(=O)N[C@@H](CCC(N)=O)C(=O)N[C@@H](Cc1c[nH]c2ccccc12)C(=O)N[C@H](C(=O)N[C@@H](CC(C)C)C(=O)N[C@H](C(=O)N[C@H](C(=O)O)C(C)C)[C@@H](C)O)C(C)C)C(C)C` [Peptide 1419.11]: in assay [1], the A2 native is given as 2/2 and the A2 peptide is 2/2.
In the case of `CSCC[C@H](NC(=O)[C@H](CC(C)C)NC(=O)[C@@H](N)CC(=O)O)C(=O)N[C@@H](CC(C)C)C(=O)N[C@@H](CC(C)C)C(=O)N[C@@H](CCCNC(=N)N)C(=O)N[C@@H](CC(C)C)C(=O)N[C@@H](CO)C(=O)N[C@@H](CCC(=O)O)C(=O)N1CCC[C@H]1C(=O)N[C@H](C(=O)O)C(C)C` [Peptide 1419.13], in assay [1], the A2 native is 2/2 and the A2 peptide is on record as 2/2.
Consider `CSCC[C@H](NC(=O)[C@H](CC(=O)O)NC(=O)[C@H](CC(N)=O)NC(=O)[C@H](CO)NC(=O)[C@H](CC(C)C)NC(=O)[C@H](CC(C)C)NC(=O)[C@H](Cc1c[nH]cn1)NC(=O)[C@H](CC(C)C)NC(=O)[C@@H](N)CO)C(=O)N[C@@H](CS)C(=O)N[C@@H](C)C(=O)O` [Peptide 1419.14], for which the A2 peptide in assay [1] is reported as 1/3.
Take `CC(C)C[C@H](NC(=O)[C@@H]1CCCN1)C(=O)N[C@H](C(=O)N[C@@H](CS)C(=O)N[C@@H](CC(N)=O)C(=O)NCC(=O)N[C@H](C(=O)N[C@@H](CC(C)C)C(=O)N[C@@H](CCC(N)=O)C(=O)NCC(=O)N[C@H](C(=O)O)C(C)C)C(C)C)C(C)C` [Peptide 1419.17]: in assay [1], the A2 native was 2/2 and the A2 peptide is reported as 2/2.
As for `CC(C)C[C@H](NC(=O)[C@H](CC(=O)O)NC(=O)[C@@H](NC(=O)[C@H](CS)NC(=O)[C@H](CCC(N)=O)NC(=O)[C@H](CC(C)C)NC(=O)[C@@H](N)CCCCN)C(C)C)C(=O)N[C@@H](Cc1c[nH]cn1)C(=O)N[C@H](C(=O)N[C@H](C(=O)O)C(C)C)C(C)C` [Peptide 1419.24], in assay [1], the A2 native is 1/2 and the A2 peptide was 1/2.
Regarding `CC[C@H](C)[C@H](NC(=O)[C@H](Cc1c[nH]c2ccccc12)NC(=O)[C@@H](NC(=O)[C@@H](NC(=O)[C@H](CO)NC(=O)[C@H](CC(C)C)NC(=O)[C@@H](NC(=O)[C@H](CC(C)C)NC(=O)[C@@H](N)Cc1ccccc1)[C@@H](C)O)C(C)C)[C@@H](C)O)C(=O)NCC(=O)N[C@H](C(=O)O)C(C)C` [Peptide 1419.27], in assay [1], the A2 native is 3/3 and the A2 peptide is recorded as 3/3.
Regarding `CC(C)C[C@H](NC(=O)[C@H](C)N)C(=O)N[C@@H](Cc1ccccc1)C(=O)N1CCC[C@H]1C(=O)N1CCC[C@H]1C(=O)N[C@@H](CCC(=O)O)C(=O)NCC(=O)N[C@H](C(=O)N[C@@H](CO)C(=O)N[C@H](C(=O)O)C(C)C)C(C)C` [Peptide 1419.61], in assay [1], the A2 native is 1/3 and the A2 peptide was 1/3.
